Patent US9464076B2, “Benzothiophene derivative” (Daiichi Sankyo Company, Limited, priority 2013, dated 2016)
Structures can show the parent of a compound that is named as a salt.

Biological target: PDE10A (Homo sapiens (Human), UniProt Q9Y233)
Assay: Measurement of PDE10A inhibitory activity-2 (PDE10A fraction prepared from MOLT-4 cells)
Type: biochemical
Settings: PDE10A fraction from MOLT-4 cells (peak around 250 mM NaCl)
Description: A human acute lymphoblastic lymphoma T cell line MOLT-4 (which can be purchased under ATCC No. CRL-1582 from ATCC) was cultured in an RPMI1640 medium containing 10% fetal bovine serum to obtain 5×10^8 MOLT-4 cells. The cells were recovered by centrifugation and suspended in 10 ml of buffer solution A (25 mM Tris-HCl, 5 mM 2-mercaptoethanol, 2 mM benzamidine, 2 mM EDTA, and 0.1 mM 4-(2-aminoethyl)benzenesulfonyl hydrochloride, pH 7.5). The cells were homogenized using a Polytron homogenizer and centrifuged (4° C., 25,000 g, 10 minutes). Then, the supernatant was further ultracentrifuged (4° C., 100,000 g, 60 minutes). The obtained supernatant was filtered through a 0.2 μm filter to obtain a soluble fraction.
HiTrap Q HP column (5 ml×2, GE Healthcare Japan Corp.) equilibrated with buffer solution A was charged with the obtained soluble fraction. Phosphodiesterase was eluted with 300 ml of buffer solution A containing a linear gradient solution of 0 to 0.8 M NaCl to recover sixty 5-ml fractions. Each fraction was tested for cAMP-metabolizing phosphodiesterase activity.
On the other hand, total RNA was prepared from Jurkat cells, one type of human T cell, and similarly subjected to RT-PCR. […] Eur J Biochem. 1999, 266 (3), 1118-2 has reported that PDE10A from the rat striatum and testis is eluted as an active peak centered around 250 mM NaCl.
For these reasons, this fraction was used as a solution for the evaluation of PDE10A inhibitory activity. The obtained solution was used to calculate the inhibitory activity (IC50) of a test compound in the same way as in the aforementioned test.

Chain of PDE10A (Q9Y233 whole entry): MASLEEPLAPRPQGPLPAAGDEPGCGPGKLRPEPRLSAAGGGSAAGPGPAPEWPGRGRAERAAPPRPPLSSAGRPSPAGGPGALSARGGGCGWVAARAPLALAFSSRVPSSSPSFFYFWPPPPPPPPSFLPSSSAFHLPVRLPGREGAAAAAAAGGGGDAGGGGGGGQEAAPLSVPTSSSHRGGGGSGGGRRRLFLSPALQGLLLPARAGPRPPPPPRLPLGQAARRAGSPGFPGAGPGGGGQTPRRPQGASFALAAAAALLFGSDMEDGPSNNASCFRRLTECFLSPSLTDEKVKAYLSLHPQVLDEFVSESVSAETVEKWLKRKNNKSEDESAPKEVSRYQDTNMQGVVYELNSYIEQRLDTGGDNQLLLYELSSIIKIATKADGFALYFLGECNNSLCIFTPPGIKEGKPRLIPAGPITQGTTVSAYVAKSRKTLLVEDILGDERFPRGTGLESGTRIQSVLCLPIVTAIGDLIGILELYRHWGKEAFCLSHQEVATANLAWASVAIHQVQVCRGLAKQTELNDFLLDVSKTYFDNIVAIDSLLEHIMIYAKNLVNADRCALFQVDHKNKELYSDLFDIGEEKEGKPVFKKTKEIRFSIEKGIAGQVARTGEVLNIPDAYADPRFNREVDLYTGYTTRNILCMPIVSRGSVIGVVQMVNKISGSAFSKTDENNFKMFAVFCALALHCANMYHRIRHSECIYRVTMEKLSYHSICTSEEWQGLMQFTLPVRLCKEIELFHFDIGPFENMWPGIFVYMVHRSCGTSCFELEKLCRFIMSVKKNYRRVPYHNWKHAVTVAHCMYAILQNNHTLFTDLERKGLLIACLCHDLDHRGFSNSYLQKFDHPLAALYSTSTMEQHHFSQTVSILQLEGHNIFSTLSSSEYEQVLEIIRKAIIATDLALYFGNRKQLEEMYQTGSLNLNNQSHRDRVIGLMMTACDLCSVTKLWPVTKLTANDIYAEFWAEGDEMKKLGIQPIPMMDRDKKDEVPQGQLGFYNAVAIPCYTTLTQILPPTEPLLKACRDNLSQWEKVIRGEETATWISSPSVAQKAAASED

**Q.** CCc1c(C(=O)Nc2cc(C(C)(C)O)c3ccccc3n2)sc2c(C(C)=O)ccc(C(C)=O)c12 [Example 7, 4,7-Diacetyl-3-ethyl-N-(4-(2-hydroxypropan-2-yl)quinolin-2-yl)benzo[b]thiophene-2-carboxamide] was tested. Which IC50 did it give?
**A.** The IC50 was 5 nM.

**Q.** How did the IC50 turn out when CCC(CC)C(=O)c1cccc2c(C)c(C(=O)Nc3cc(C(C)(C)O)c4ccccc4n3)sc12 [Example 24, 7-(2-Ethylbutanoyl)-N-(4-(2-hydroxypropan-2-yl)quinolin-2-yl)-3-methylbenzo[b]thiophene-2-carboxamide] was run?
**A.** The IC50 was 25 nM.

**Q.** How did the IC50 turn out when COCc1ccc(C(C)=O)c2sc(C(=O)Nc3cc(CN(C)CCO)c4ccccc4n3)c(C)c12 [Example 34, 7-Acetyl-N-(4-(((2-hydroxyethyl)(methyl)amino)methyl)quinolin-2-yl)-4-(methoxymethyl)-3-methylbenzo[b]thiophene-2-carboxamide dihydrochloride] was run?
**A.** Its IC50 is 0.94 nM.

**Q.** Which IC50 does the source give for CC(=O)c1ccc(C(C)=O)c2c(C)c(C(=O)Nc3cc(C(C)(C)O)c4ccccc4n3)sc12 [Example 2, 4,7-Diacetyl-N-(4-(2-hydroxypropan-2-yl)quinolin-2-yl)-3-methylbenzo[b]thiophene-2-carboxamide] here?
**A.** Its IC50 is 2.6 nM.

**Q.** With COCc1ccc(C(C)=O)c2sc(C(=O)Nc3ccc4c(C(C)(C)O)cccc4n3)c(C)c12 [Example 74, 7-Acetyl-N-(5-(2-hydroxypropan-2-yl)quinolin-2-yl)-4-(methoxymethyl)-3-methylbenzo[b]thiophene-2-carboxamide] as the compound, how does the IC50 read?
**A.** Its IC50 is 3 nM.

**Q.** Which IC50 does the source give for COCc1ccc(C(C)=O)c2sc(C(=O)Nc3ccc4c(C(=O)N5CC(F)C5)cccc4n3)c(C)c12 [Example 99, 7-Acetyl-N-(5-((3-fluoroazetidin-1-yl)carbonyl)quinolin-2-yl)-4-(methoxymethyl)-3-methylbenzo[b]thiophene-2-carboxamide] here?
**A.** The IC50 was 0.11 nM.

**Q.** COCc1ccc(C(C)=O)c2sc(C(=O)Nc3cc(N4CCOCC4)c4ccccc4n3)c(C)c12 [Example 56, 7-Acetyl-4-(methoxymethyl)-3-methyl-N-(4-morpholinoquinolin-2-yl)benzo[b]thiophene-2-carboxamide] was tested. Which IC50 did it give?
**A.** Its IC50 is 1.1 nM.

**Q.** For [2H]C([2H])([2H])OC1CN(C(=O)c2cccc3nc(NC(=O)c4sc5c(C(C)=O)ccc(COC)c5c4C)ccc23)C1 [Example 122, 7-Acetyl-N-(5-((3-(^2H3)methoxyazetidin-1-yl)carbonyl)quinolin-2-yl)-4-(methoxymethyl)-3-methylbenzo[b]thiophene-2-carboxamide], which IC50 is on record?
**A.** The IC50 was 0.29 nM.

**Q.** For COCc1ccc(C(C)=O)c2sc(C(=O)Nc3ccc4c(C(=O)N5CC(F)(F)C5)cccc4n3)c(C)c12 [Example 100, 7-Acetyl-N-(5-((3,3-difluoroazetidin-1-yl)carbonyl)quinolin-2-yl)-4-(methoxymethyl)-3-methylbenzo[b]thiophene-2-carboxamide], which IC50 is on record?
**A.** Its IC50 is 0.42 nM.

**Q.** For CC(=O)c1ccc(COC(C)C)c2c(C)c(C(=O)Nc3cc(C(C)(C)O)c4ccccc4n3)sc12 [Example 31, 7-Acetyl-N-(4-(2-hydroxypropan-2-yl)quinolin-2-yl)-4-(isopropoxymethyl)-3-methylbenzo[b]thiophene-2-carboxamide], which IC50 is on record?
**A.** Its IC50 is 16 nM.

**Q.** With Cc1c(C(=O)Nc2cc(C(C)(C)O)c3ccccc3n2)sc2c(C(=O)CC(C)C)cccc12 [Example 23, N-(4-(2-Hydroxypropan-2-yl)quinolin-2-yl)-3-methyl-7-(3-methylbutanoyl)benzo[b]thiophene-2-carboxamide] as the compound, how does the IC50 read?
**A.** Its IC50 is 10 nM.

**Q.** For CCC(=O)c1cccc2c(C)c(C(=O)Nc3cc(C(C)(C)O)c4ccccc4n3)sc12 [Example 16, N-(4-(2-Hydroxypropan-2-yl)quinolin-2-yl)-3-methyl-7-propionylbenzo[b]thiophene-2-carboxamide], which IC50 is on record?
**A.** Its IC50 is 4.8 nM.

**Q.** How did the IC50 turn out when CC(=O)c1ccc(C(C)O)c2c(C)c(C(=O)Nc3cc(C(C)(C)O)c4ccccc4n3)sc12 (stereo not shown) [Example 9, 7-Acetyl-4-(1-hydroxyethyl)-N-(4-(2-hydroxypropan-2-yl)quinolin-2-yl)-3-methylbenzo[b]thiophene-2-carboxamide] was run?
**A.** Its IC50 is 7.8 nM.

**Q.** How did the IC50 turn out when COCc1ccc(C(=O)C(C)(C)C)c2sc(C(=O)Nc3cc(CN4CC[C@@H](O)C4)c4ccccc4n3)c(C)c12 [Example 58, (R)—N-(4-((3-Hydroxypyrrolidin-1-yl)methyl)quinolin-2-yl)-4-(methoxymethyl)-3-methyl-7-pivaloylbenzo[b]thiophene-2-carboxamide dihydrochloride] was run?
**A.** The IC50 was 0.085 nM.

**Q.** COCc1ccc(C(C)=O)c2sc(C(=O)Nc3ccc4c(COC(F)F)cccc4n3)c(C)c12 [Example 73, 7-Acetyl-N-(5-((difluoromethoxy)methyl)quinolin-2-yl)-4-(methoxymethyl)-3-methylbenzo[b]thiophene-2-carboxamide hydrochloride] was tested. Which IC50 did it give?
**A.** The IC50 was 2 nM.

**Q.** For COCc1ccc(C(C)=O)c2sc(C(=O)Nc3ccc4c(C(C)=O)cccc4n3)c(C)c12 [Example 75, 7-Acetyl-N-(5-acetylquinolin-2-yl)-4-(methoxymethyl)-3-methylbenzo[b]thiophene-2-carboxamide], which IC50 is on record?
**A.** Its IC50 is 0.91 nM.

**Q.** CC(=O)c1ccc(C(C)=O)c2c(C)c(C(=O)Nc3cc(C)c4ccccc4n3)sc12 [Example 11, 4,7-Diacetyl-3-methyl-N-(4-methylquinolin-2-yl)benzo[b]thiophene-2-carboxamide] was tested. Which IC50 did it give?
**A.** The IC50 was 2.2 nM.

**Q.** Which IC50 does the source give for CC(=O)c1ccc(CO)c2c(C)c(C(=O)Nc3ccc4c(CO)cccc4n3)sc12 [Example 114, 7-Acetyl-4-(hydroxymethyl)-N-(5-(hydroxymethyl)quinolin-2-yl)-3-methylbenzo[b]thiophene-2-carboxamide] here?
**A.** Its IC50 is 2.1 nM.

**Q.** For COCc1ccc(C(C)=O)c2sc(C(=O)Nc3ccc4c(COC(=O)CCC(=O)O)cccc4n3)c(C)c12 [Example 89, 4-((2-(7-Acetyl-4-(methoxymethyl)-3-methylbenzo[b]thiophene-2-carboxamido)quinolin-5-yl)methoxy)-4-oxobutanoic acid], which IC50 is on record?
**A.** Its IC50 is 0.37 nM.

**Q.** With CC(=O)c1ccc(C(C)=O)c2c(C)c(C(=O)Nc3cc(CO)c4ccccc4n3)sc12 [Example 14, 4,7-Diacetyl-N-(4-(hydroxymethyl)quinolin-2-yl)-3-methylbenzo[b]thiophene-2-carboxamide] as the compound, how does the IC50 read?
**A.** Its IC50 is 0.89 nM.

**Q.** CCCC(=O)c1cccc2c(C)c(C(=O)Nc3cc(C(C)(C)O)c4ccccc4n3)sc12 [Example 17, 7-Butyryl-N-(4-(2-hydroxypropan-2-yl)quinolin-2-yl)-3-methylbenzo[b]thiophene-2-carboxamide] was tested. Which IC50 did it give?
**A.** The IC50 was 2.6 nM.

**Q.** How did the IC50 turn out when COCc1ccc(C(C)=O)c2sc(C(=O)Nc3ccc4c(C(=O)OC)cccc4n3)c(C)c12 [Example 92, Methyl 2-(7-acetyl-4-(methoxymethyl)-3-methylbenzo[b]thiophene-2-carboxamido)quinoline-5-carboxylate] was run?
**A.** The IC50 was 12 nM.

**Q.** How did the IC50 turn out when COCc1ccc(C(C)=O)c2sc(C(=O)Nc3cc(CN4CCCC4)c4ccccc4n3)c(C)c12 [Example 43, 7-Acetyl-4-(methoxymethyl)-3-methyl-N-(4-(pyrrolidin-1-ylmethyl)quinolin-2-yl)benzo[b]thiophene-2-carboxamide] was run?
**A.** Its IC50 is 6.2 nM.

**Q.** Which IC50 does the source give for CC(=O)c1ccc(C(C)=O)c2c(C)c(C(=O)Nc3cc(CN(C)C(C)=O)c4ccccc4n3)sc12 [Example 15, 4,7-Diacetyl-3-methyl-N-(4-((N-methylacetamido)methyl)quinolin-2-yl)benzo[b]thiophene-2-carboxamide] here?
**A.** The IC50 was 2.3 nM.

**Q.** With COCc1ccc(C(C)=O)c2sc(C(=O)Nc3ccc4c(C(=O)N5CCOCC5)cccc4n3)c(C)c12 [Example 95, 7-Acetyl-4-(methoxymethyl)-3-methyl-N-(5-((morpholin-4-yl)carbonyl)quinolin-2-yl)benzo[b]thiophene-2-carboxamide] as the compound, how does the IC50 read?
**A.** Its IC50 is 0.48 nM.

**Q.** How did the IC50 turn out when COCc1ccc(C(C)=O)c2sc(C(=O)Nc3ccc4c(COC(=O)[C@@H](N)CO)cccc4n3)c(C)c12 [Example 91, (S)-(2-(7-Acetyl-4-(methoxymethyl)-3-methylbenzo[b]thiophene-2-carboxamido)quinolin-5-yl)methyl-2-amino-3-hydroxypropanoate] was run?
**A.** The IC50 was 0.74 nM.

**Q.** How did the IC50 turn out when [2H]C([2H])([2H])OC1CN(C(=O)c2cccc3nc(NC(=O)c4sc5c(C(C)=O)ccc(C([2H])([2H])OC)c5c4C)ccc23)C1 [Example 123, 7-Acetyl-N-(5-((3-(^2H3)methoxyazetidin-1-yl)carbonyl)quinolin-2-yl)-4-(methoxy(^2H2)methyl)-3-methylbenzo[b]thiophene-2-carboxamide] was run?
**A.** Its IC50 is 0.22 nM.

**Q.** For COc1cc(NC(=O)c2sc3c(C(C)=O)ccc(C(C)=O)c3c2C)nc2ccccc12 [Example 12, 4,7-Diacetyl-N-(4-methoxyquinolin-2-yl)-3-methylbenzo[b]thiophene-2-carboxamide], which IC50 is on record?
**A.** The IC50 was 4.4 nM.
